Results published in paper PMC10301793 (Marine Drugs, 2023).
Where two headings read alike, the source gives them in different places. Where a SMILES comes first, the peptide text is derived from it. Bridges are numbered along the chain shown (N, C = ends).

Assays:
α7 nAChR = α7 nAChR (Rattus norvegicus, UniProt Q05941); assay: cell-based
α9α10 nAChR = α9α10 nAChR (Rattus norvegicus, UniProt P43144+Q9JLB5); assay: cell-based
α3β2 nAChR = α3β2 nAChR (Rattus norvegicus, UniProt P04757+P12390); assay: cell-based; format: cell-based
other nAChR subtypes = format: cell-based, rat
α2β2 nAChR = α2β2 nAChR (Rattus norvegicus, UniProt P12389+P12390); assay: cell-based
α6/α3β2β3 nAChR = α6/α3β2β3 nAChR (Rattus norvegicus, UniProt P04757+P12390+P12391+P43143); assay: cell-based
α3β4 nAChR = α3β4 nAChR (Rattus norvegicus, UniProt P04757+P12392); assay: cell-based
α4β2 nAChR = α4β2 nAChR (Rattus norvegicus, UniProt P09483+P12390); assay: cell-based

Sequence of α3β2 nAChR (P04757 26-499 limits assumed): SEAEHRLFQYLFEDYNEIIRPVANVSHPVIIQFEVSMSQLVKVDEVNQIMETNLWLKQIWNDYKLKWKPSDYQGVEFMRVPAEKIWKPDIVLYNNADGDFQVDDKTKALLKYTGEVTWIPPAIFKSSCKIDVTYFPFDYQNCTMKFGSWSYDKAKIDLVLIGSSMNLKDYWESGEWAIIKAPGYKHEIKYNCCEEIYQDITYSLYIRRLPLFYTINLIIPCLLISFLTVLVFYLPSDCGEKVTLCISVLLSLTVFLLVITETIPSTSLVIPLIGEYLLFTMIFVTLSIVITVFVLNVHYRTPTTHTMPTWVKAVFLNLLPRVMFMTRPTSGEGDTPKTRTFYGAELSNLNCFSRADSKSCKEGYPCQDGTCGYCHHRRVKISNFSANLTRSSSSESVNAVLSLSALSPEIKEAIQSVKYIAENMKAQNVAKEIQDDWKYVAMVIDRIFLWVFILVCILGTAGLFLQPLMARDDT
Sequence of α3β2 nAChR (P12390 25-500 limits assumed): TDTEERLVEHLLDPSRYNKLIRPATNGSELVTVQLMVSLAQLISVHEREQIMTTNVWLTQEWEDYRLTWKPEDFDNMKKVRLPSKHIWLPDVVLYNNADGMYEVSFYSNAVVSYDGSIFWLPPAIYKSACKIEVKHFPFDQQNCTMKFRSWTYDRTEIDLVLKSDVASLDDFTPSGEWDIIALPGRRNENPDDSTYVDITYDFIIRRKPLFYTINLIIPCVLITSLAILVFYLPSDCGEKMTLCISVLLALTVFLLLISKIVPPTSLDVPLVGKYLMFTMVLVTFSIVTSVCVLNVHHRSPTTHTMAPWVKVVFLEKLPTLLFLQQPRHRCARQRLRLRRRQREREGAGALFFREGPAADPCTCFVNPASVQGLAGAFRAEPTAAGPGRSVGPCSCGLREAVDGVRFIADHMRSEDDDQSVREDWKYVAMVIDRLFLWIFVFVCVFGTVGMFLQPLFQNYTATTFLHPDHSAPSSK
Sequence of α9α10 nAChR (P43144 26-479 limits assumed): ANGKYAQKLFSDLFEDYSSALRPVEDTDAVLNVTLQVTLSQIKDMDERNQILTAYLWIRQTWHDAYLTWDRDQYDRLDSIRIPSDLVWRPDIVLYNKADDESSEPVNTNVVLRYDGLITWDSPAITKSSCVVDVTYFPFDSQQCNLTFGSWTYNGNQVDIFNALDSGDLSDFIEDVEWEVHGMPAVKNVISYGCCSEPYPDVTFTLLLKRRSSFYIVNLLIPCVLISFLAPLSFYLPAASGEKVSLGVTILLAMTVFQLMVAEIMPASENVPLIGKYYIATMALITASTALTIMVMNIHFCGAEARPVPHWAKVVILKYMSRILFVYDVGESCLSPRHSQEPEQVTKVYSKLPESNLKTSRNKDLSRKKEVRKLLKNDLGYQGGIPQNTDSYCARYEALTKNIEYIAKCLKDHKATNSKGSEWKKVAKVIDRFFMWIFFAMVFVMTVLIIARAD
Sequence of α9α10 nAChR (Q9JLB5 25-447 limits assumed): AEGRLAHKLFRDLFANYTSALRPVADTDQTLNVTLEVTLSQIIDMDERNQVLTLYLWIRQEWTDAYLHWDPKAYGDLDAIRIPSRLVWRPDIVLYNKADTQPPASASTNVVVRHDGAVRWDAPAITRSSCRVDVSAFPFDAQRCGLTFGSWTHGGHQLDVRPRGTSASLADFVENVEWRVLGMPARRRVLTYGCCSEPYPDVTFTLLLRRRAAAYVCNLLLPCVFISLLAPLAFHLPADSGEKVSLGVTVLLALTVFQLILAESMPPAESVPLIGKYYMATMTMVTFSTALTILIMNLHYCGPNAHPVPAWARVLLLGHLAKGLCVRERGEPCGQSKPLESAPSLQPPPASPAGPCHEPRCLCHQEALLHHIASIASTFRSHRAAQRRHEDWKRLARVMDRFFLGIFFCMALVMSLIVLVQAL
Sequence of α6/α3β2β3 nAChR (P04757 whole entry, looked up): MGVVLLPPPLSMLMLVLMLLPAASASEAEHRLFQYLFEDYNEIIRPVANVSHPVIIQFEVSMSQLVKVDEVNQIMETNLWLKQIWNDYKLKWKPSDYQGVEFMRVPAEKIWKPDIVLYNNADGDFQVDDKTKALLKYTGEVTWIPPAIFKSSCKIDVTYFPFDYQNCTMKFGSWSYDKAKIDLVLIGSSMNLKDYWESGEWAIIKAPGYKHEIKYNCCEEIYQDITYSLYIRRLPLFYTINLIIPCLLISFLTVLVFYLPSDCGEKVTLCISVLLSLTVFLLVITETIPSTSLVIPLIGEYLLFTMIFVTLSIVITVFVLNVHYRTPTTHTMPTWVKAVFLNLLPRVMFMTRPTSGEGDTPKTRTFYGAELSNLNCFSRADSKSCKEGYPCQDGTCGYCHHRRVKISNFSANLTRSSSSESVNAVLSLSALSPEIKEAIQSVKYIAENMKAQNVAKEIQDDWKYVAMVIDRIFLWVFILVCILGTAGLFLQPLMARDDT
Sequence of α6/α3β2β3 nAChR (P12390 whole entry, looked up): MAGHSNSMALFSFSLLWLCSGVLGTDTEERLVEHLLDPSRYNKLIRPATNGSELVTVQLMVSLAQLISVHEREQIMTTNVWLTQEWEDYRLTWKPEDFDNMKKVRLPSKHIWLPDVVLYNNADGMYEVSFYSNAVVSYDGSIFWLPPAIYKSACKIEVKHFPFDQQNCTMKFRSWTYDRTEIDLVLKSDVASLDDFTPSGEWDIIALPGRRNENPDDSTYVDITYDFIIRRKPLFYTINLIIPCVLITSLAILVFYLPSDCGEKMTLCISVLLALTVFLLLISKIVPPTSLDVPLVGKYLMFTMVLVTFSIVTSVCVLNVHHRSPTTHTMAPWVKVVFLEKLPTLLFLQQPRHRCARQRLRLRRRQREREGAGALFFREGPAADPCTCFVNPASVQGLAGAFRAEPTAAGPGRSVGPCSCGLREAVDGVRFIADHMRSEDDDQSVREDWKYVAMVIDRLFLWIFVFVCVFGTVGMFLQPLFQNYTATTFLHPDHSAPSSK
Sequence of α6/α3β2β3 nAChR (P12391 whole entry, looked up): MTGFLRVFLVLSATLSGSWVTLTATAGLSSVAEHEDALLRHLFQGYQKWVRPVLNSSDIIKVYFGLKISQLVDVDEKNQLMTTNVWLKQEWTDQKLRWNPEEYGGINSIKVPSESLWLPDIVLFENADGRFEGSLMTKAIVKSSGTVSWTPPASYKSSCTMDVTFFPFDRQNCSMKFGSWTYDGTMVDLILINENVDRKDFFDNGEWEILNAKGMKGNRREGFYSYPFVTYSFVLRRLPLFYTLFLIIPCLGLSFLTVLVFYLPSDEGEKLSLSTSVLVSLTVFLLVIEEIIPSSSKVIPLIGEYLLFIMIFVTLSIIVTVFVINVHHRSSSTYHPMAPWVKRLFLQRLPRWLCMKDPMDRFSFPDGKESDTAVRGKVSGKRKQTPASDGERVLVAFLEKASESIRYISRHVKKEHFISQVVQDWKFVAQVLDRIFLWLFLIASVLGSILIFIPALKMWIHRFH
Sequence of α6/α3β2β3 nAChR (P43143 whole entry, looked up): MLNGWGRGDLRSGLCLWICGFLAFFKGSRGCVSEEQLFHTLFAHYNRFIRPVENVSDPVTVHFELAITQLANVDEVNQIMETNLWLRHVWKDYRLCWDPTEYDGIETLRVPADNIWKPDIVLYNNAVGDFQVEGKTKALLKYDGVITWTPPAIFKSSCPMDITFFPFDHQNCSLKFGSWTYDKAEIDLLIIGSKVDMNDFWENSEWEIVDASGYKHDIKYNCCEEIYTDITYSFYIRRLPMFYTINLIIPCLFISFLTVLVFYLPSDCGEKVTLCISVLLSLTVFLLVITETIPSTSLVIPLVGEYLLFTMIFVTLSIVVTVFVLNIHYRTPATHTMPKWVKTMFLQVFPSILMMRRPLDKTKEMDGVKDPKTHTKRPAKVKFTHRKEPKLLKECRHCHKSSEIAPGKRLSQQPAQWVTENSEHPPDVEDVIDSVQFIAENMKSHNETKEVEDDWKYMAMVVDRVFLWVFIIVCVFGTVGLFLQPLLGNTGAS
Sequence of α3β4 nAChR (P04757 26-499 limits assumed): as the sequence (P04757 26-499 limits assumed) above
Sequence of α3β4 nAChR (P12392 21-495 limits assumed): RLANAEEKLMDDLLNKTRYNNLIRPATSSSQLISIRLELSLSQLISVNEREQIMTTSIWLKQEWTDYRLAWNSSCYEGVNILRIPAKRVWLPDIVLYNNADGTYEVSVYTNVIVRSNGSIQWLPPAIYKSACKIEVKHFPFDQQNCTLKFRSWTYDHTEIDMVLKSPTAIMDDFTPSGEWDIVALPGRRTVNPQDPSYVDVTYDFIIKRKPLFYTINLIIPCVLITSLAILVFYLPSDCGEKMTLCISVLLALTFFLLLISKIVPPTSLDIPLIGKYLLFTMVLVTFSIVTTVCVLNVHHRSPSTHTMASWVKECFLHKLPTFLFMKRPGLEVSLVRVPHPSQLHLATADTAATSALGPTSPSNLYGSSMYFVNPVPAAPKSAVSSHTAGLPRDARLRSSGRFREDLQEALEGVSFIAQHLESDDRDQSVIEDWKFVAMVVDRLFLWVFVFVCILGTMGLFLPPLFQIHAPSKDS
Sequence of α7 nAChR (Q05941 23-502 limits assumed): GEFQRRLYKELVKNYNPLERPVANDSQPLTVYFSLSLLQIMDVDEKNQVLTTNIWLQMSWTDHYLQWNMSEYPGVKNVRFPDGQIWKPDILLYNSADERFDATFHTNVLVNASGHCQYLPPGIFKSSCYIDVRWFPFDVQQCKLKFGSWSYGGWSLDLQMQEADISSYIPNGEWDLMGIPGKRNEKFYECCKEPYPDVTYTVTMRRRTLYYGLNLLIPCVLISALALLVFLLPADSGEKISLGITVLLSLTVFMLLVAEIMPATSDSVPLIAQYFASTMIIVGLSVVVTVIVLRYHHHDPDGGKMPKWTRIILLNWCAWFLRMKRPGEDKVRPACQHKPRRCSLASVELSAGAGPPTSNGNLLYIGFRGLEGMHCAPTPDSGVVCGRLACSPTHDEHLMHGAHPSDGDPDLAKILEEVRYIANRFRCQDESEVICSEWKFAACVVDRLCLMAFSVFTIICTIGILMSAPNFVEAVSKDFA

SMILES	IC50 (α7 nAChR)	IC50 (α9α10 nAChR)	Hill Slope (α3β2 nAChR)	IC50 (α3β2 nAChR)	fold lower potency than at α6/α3β2β3 (α3β2 nAChR)	inhibition (other nAChR subtypes)	IC50 (other nAChR subtypes; read-out: potency)	IC50 (α2β2 nAChR)	Hill Slope (α6/α3β2β3 nAChR)	IC50 (α6/α3β2β3 nAChR)	IC50 (α3β4 nAChR)	IC50 (α4β2 nAChR)	Hill Slope (α7 nAChR)	Hill Slope (α9α10 nAChR)	fold less potency than at muscle-type α1β1γδ (α3β2 nAChR)	IC50 (other nAChR subtypes; read-out: IC50)	Hill Slope (α2β2 nAChR)	Hill Slope (α3β4 nAChR)	Hill Slope (α4β2 nAChR)
CC(C)C[C@@H]1NC(=O)[C@H](C(C)C)NC(=O)[C@H](C)NC(=O)[C@@H]2CSSC[C@H](NC(=O)CN)C(=O)N[C@@H](CSSC[C@@H](C(N)=O)NC(=O)[C@H](Cc3c[nH]cn3)NC1=O)C(=O)N[C@@H](CO)C(=O)N[C@@H]([C@@H](C)O)C(=O)N1CCC[C@H]1C(=O)N1CCC[C@H]1C(=O)N2 [AdIA] (H-GCCSTPPCAVLHC-NH2; disulfide 2-8, 3-13)	> 10 nM	> 10 nM	−1.24	1380 nM	at least 8 fold	≤ 50%	> 10 µM	> 10 nM	−1.14	177 nM	> 10 nM	> 10 nM							
C[C@@H]1NC(=O)[C@@H]2CCCN2C(=O)[C@H](Cc2c[nH]cn2)NC(=O)[C@@H]2CSSC[C@@H](C(N)=O)NC(=O)[C@H](CC(N)=O)NC(=O)[C@H](Cc3ccc(O)cc3)NC(=O)[C@H](CCCCN)NC(=O)[C@H](CCCNC(=N)N)NC(=O)CNC(=O)[C@H](CSSC[C@H](NC(=O)[C@H](CCCNC(=N)N)NC(=O)CN)C(=O)N2)NC1=O [GaIA] (H-GRCCHPACGRKYNC-NH2; disulfide 3-8, 4-14)		777 nM	−1.25						−0.87				−1.45	−0.93	about 25 fold	> 1 µM	−1.09	−1.37	−1.28
